Measured values from US8486996B2, “Aroylfuranes and aroylthiophenes” (Basilea Pharmaceutica AG, priority 2006, dated 2013).
Read-outs that look alike come from different tables or passages of the source.

Legend:
tumor cells [1] = assay: MTS proliferation assay (72 h read-out); assay type: cell-based
Method in brief: (§1)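 Tumour cells (1.5×10^3–10^4 per well) were seeded 24 h before compound addition, then exposed to 0.001–10 μM final compound for 72 h under culture conditions. MTS reagent was added for a further 3 h, absorbance was read at 492 nm, and results were binned into scores A–D.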

[2] = MTS proliferation assay (72 h read-out); assay type: cell-based; details: MRC5 cells
Method in brief: as §1

tumor cells [3] = assay: Mitochondrial membrane potential, JC-1 (read-out 48 h); assay type: cell-based; details: JC-1, 48 h
Method in brief: (§2)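 Tumor cells were treated with test compounds (adherent cells after 24 h of attachment, suspension cells immediately), medium holding up to 5% DMSO. After 48 h, JC-1 (2-5 μg/ml in added medium) was applied for 30 min. Fluorescence microscopy (FITC/TRITC filters) scored the fraction of cells with dissipated mitochondrial membrane potential as categories A-D.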

[4] = as above; assay type: cell-based; details: PBL, JC-1, 48 h
Method in brief: as §2

tumor cells [5] = assay: Hoechst 33342 nuclear staining (48 h read-out); assay type: cell-based
Method in brief: (§3)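 Adherent cells pre-spread 24 h before dosing, suspension cells dosed at seeding; compounds at 0.001 μM-10 μM final, 48 h at culture conditions. Hoechst 33342 (2-5 μg/ml) added for 30 min, then fluorescence microscopy scoring of apoptotic nuclear fraction and apoptosis-specific morphology, reported as scores A-D.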

[6] = Hoechst 33342 nuclear staining (48 h read-out); assay type: cell-based
Method in brief: as §3

HeLa = assay: Colony Forming Units (read-out 6 days), HeLa; assay type: cell-based, human; details: colonies containing more than 30 cells, read-out: Colony Forming Units, score based on IC50, HeLa
Experimental: (§4) Appropriate numbers of cells (100-150 cells, dependent on the cell type) are being seeded out in 1 ml complete medium into 6-well plates and allowed to attach for 48 h. The compounds are added after 48 h in 500 μl solution. The concentrations are in the range of 0.001 μM-3 μM. Control plates receive the same volume of medium containing the appropriate amount of DMSO. The plates are incubated for 5-7 days at cell culture conditions and subsequently scored for growth of colonies (containing more than 30 cells) by using a microscope.

H460 = assay: Colony Forming Units (read-out 6 days), H460; assay type: cell-based, human; details: colonies containing more than 30 cells, read-out: Colony Forming Units, score based on IC50, H460
Experimental: as §4

[7] = HT1080 cells, read-out: MTS proliferation assay IC50, HT1080
[8] = HeLa cells, read-out: MTS proliferation assay IC50, HeLa
[9] = Jily cells, read-out: MTS proliferation assay IC50, Jily
[10] = HeLa cells, read-out: Mitochondrial membrane potential (read-out 48 h) HeLa
[11] = Jily cells, read-out: Mitochondrial membrane potential (read-out 48 h) Jily
[12] = Jurkat cells, read-out: Mitochondrial membrane potential (read-out 48 h) Jurkat
[13] = MCF7 cells, read-out: Mitochondrial membrane potential (read-out 48 h) MCF7
[14] = HeLa cells, read-out: Hoechst 33342 nuclear staining EC50, HeLa
[15] = Jily cells, read-out: Hoechst 33342 nuclear staining EC50, Jily
[16] = Jurkat cells, read-out: Hoechst 33342 nuclear staining EC50, Jurkat
[17] = MRC5 cells, read-out: Hoechst 33342 nuclear staining EC50, MRC5
[18] = PBL, read-out: Hoechst 33342 nuclear staining EC50, PBL
[19] = Jurkat cells, read-out: MTS proliferation assay IC50, Jurkat

SMILES	IC50 (tumor cells [1]; [7]) [nM]	IC50 (tumor cells [1]; [8]) [nM]	IC50 (tumor cells [1]; [9]) [nM]	IC50 [2] [nM]	EC50 (tumor cells [3]; [10]) [nM]	EC50 (tumor cells [3]; [11]) [nM]	EC50 (tumor cells [3]; [12]) [nM]	EC50 (tumor cells [3]; [13]) [nM]	EC50 [4] [nM]	EC50 (tumor cells [5]; [14]) [nM]	EC50 (tumor cells [5]; [15]) [nM]	EC50 (tumor cells [5]; [16]) [nM]	EC50 [6, 17] [nM]	EC50 [6, 18] [nM]	IC50 (HeLa) [nM]	IC50 (H460) [nM]	IC50 (tumor cells [1]; [19]) [nM]	also measured
CCOc1ccccc1C(=O)c1cc2cc(OC)ccc2o1 [Example 53]	< 10	< 10	< 10	< 10	10 to 100	10 to 100	10 to 100	10 to 100	> 1000	10 to 100	10 to 100	< 10	100 to 1000	> 1000	10 to 100	10 to 100	–	–
CCOc1ccc(F)cc1C(=O)c1oc2ccc(OC)cc2c1NC(=O)COC [Example 58]	10 to 100	10 to 100	10 to 100	10 to 100	100 to 1000	10 to 100	10 to 100	100 to 1000	> 1000	100 to 1000	10 to 100	10 to 100	> 1000	> 1000	10 to 100	10 to 100	< 10	–
Nc1c(C(=O)c2ccccc2OCC(F)(F)F)oc2ccc(Cl)cc12 [Example 61]	10 to 100	10 to 100	< 10	10 to 100	100 to 1000	10 to 100	10 to 100	> 1000	> 1000	100 to 1000	10 to 100	< 10	> 1000	> 1000	10 to 100	10 to 100	< 10	–
CCOc1ccc(F)cc1C(=O)c1cc2cc(O)ccc2o1 [Example 64]	10 to 100	10 to 100	< 10	10 to 100	10 to 100	10 to 100	< 10	> 1000	> 1000	10 to 100	10 to 100	< 10	100 to 1000	> 1000	10 to 100	10 to 100	< 10	–
CCOc1ccc2oc(C(=O)c3cc(F)ccc3OCC)cc2c1 [Example 66]	< 10	< 10	< 10	< 10	100 to 1000	10 to 100	10 to 100	100 to 1000	> 1000	10 to 100	< 10	10 to 100	100 to 1000	> 1000	< 10	< 10	–	–
CCOc1ccc(F)cc1C(=O)c1oc2ccc(O)cc2c1N [Example 75]	< 10	10 to 100	< 10	< 10	< 10	< 10	< 10	10 to 100	> 1000	< 10	< 10	< 10	< 10	> 1000	10 to 100	10 to 100	< 10	–
CCOc1ncccc1C(=O)c1oc2ccc(Cl)cc2c1N [Example 78]	< 10	10 to 100	< 10	< 10	10 to 100	10 to 100	< 10	100 to 1000	> 1000	10 to 100	10 to 100	< 10	> 1000	> 1000	10 to 100	10 to 100	< 10	–
CCN(C)c1ncccc1C(=O)c1oc2ccc(Cl)cc2c1N [Example 80]	100 to 1000	100 to 1000	10 to 100	100 to 1000	100 to 1000	100 to 1000	10 to 100	> 1000	> 1000	100 to 1000	100 to 1000	100 to 1000	> 1000	> 1000	100 to 1000	100 to 1000	10 to 100	–
Nc1c(C(=O)c2cccnc2N2CCCCC2)oc2ccc(Cl)cc12 [Example 82]	< 10	< 10	< 10	< 10	10 to 100	< 10	< 10	10 to 100	> 1000	10 to 100	10 to 100	< 10	10 to 100	> 1000	10 to 100	10 to 100	< 10	–
COc1ccc2oc(C(=O)c3cc(F)ccc3N3CC=CCC3)cc2c1 [Example 98]	10 to 100	10 to 100	10 to 100	< 10	< 10	< 10	< 10	< 10	> 1000	10 to 100	10 to 100	< 10	10 to 100	> 1000	10 to 100	10 to 100	< 10	–
CCOc1ccccc1C(=O)COc1nc(C)ccc1C#N [Example 145]	–	–	–	–	–	–	–	–	> 1000	–	100 to 1000	–	–	> 1000	–	–	–	EC50 (tumor cells [3]; Homo sapiens, HeLa cells, read-out: Mitochondrial membrane potential (read-out 48 h) HeLa): > 1000 nM; EC50 (tumor cells [3]; Homo sapiens, Jurkat cells, read-out: Mitochondrial membrane potential (read-out 48 h) Jurkat): 100 to 1000 nM; EC50 (tumor cells [3]; Homo sapiens, MCF7 cells, read-out: Mitochondrial membrane potential (read-out 48 h) MCF7): 100 to 1000 nM; EC50 (tumor cells [5]; Homo sapiens, HeLa cells, read-out: Hoechst 33342 nuclear staining EC50, HeLa): > 1000 nM; EC50 (tumor cells [5]; Homo sapiens, Jurkat cells, read-out: Hoechst 33342 nuclear staining EC50, Jurkat): 100 to 1000 nM; EC50 ([6]; Homo sapiens, MRC5 cells, read-out: Hoechst 33342 nuclear staining EC50, MRC5): > 1000 nM; melting point: 156 to 158 °C
